US20250288584A1, “COMBINATIONS COMPRISING POSITIVE ALLOSTERIC MODULATORS OR ORTHOSTERIC AGONISTS OF METABOTROPIC GLUTAMATERGIC RECEPTOR SUBTYPE 2 AND THEIR USE” (JANSSEN PHARMACEUTICA NV, priority 2014, published 2025)
Where “and” joins values, the source holds several entries; their conditions need not be identical. Equal values may be shown once. Read-outs that look alike come from different tables or passages of the source. Values belong to the compound of their own block, whether it stands above or below them.

Key:
human mGlu2 receptor = target: T1, human mGlu2 receptor (Homo sapiens, UniProt Q14416); experiment: [35S]GTPγS binding assay, mGluR2 PAM; type: biochemical; details: for Emax: maximal % effect relative to control glutamate response, EC20 glutamate, read-out: GTPγS-hmGluR2 PAM Emax
T1 construct: expressed in transfected cells; host or cells: CHO cells

[1] = Plasma and brain levels (pK/pD analysis); type: in vivo, mice; details: for concentration at 1 h / concentration at 0.5 h / concentration at 0.25 h / concentration at 2 h / concentration at 4 h: mouse
Experimental: In various tests, animals were sacrificed following testing, and trunk blood and/or brain tissue (whole brains) was collected for quantification of drug levels. Immediately after testing, animals were decapitated and trunk blood was collected into a BD Vacutainer® tube containing K2EDTA and chilled on ice until centrifugation. Following centrifugation (13000-18000 rpm, 5-7 min), the plasma was removed and transferred to a labeled microcentrifuge tube and stored at −80° C. For brain tissue collection, brains were removed immediately following decapitation and flash frozen. The frozen sample was placed in a labeled centrifuge tube and stored at −80° C.
In addition to recording the efficacy and toxicity data for these compounds alone or in combination, both plasma and brain samples were collected from each of the groups for pharmacokinetic/pharmacokinetic analysis.

MES seizures = details: in vivo; cited from earlier work
corneal kindled seizures = experiment: Mouse corneal kindling model; type: in vivo, mice; details: for Mean Seizure Score: Racine 0 to 5
Experimental: After the mice reached a stable kindled state, the test compound or vehicle was administered and, at the previously determined TPE, each animal was given the electrical stimulus indicated above. […] One dose of LEV and two doses of Co.

[2] = test system: pentylenetetrazol seizures; details: in vivo; cited from earlier work
[3] = LEV 10 mg/kg combined with Co. No. 2 3 mg/kg, 6 Hz 44 mA
[4] = plasma, subcutaneous, 10 mg/kg, 10 mg/kg s.c., 32 mA group, read-out: Co. No. 25-a mean plasma levels
[5] = plasma, subcutaneous, 20 mg/kg, 20 mg/kg s.c., 32 mA group, read-out: Co. No. 25-a mean plasma levels

T1 sequence (Q14416 19-872): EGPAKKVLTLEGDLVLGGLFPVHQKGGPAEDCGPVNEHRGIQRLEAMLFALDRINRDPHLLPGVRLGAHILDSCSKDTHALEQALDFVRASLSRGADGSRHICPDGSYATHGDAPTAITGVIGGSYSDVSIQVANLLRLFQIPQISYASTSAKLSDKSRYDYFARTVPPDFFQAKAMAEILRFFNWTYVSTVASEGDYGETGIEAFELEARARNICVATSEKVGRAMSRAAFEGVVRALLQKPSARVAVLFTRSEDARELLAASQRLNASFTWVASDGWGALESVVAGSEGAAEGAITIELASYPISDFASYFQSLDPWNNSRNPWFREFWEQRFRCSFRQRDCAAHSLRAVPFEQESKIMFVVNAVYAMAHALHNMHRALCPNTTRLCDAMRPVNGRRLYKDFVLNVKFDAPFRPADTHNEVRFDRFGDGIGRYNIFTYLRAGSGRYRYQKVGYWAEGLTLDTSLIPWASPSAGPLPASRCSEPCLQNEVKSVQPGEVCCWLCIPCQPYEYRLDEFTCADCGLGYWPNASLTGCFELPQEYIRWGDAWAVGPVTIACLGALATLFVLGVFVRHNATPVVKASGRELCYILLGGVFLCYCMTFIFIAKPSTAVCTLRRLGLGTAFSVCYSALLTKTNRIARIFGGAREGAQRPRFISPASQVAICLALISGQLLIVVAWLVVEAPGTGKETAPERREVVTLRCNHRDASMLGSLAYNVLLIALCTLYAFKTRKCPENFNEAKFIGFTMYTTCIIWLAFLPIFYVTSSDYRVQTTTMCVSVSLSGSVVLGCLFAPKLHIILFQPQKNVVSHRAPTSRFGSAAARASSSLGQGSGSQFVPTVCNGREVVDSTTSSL

Emax (human mGlu2 receptor): 256%
Structure (SMILES): C[C@H](Oc1ccc(F)cc1F)c1ccn2c(CC3CC3)nnc2c1C(F)(F)F [Co. No. 6-b, 3-(Cyclopropylmethyl)-7-[(1S)-1-(2,4-difluorophenoxy)ethyl]-8-(trifluoromethyl)[1,2,4]triazolo[4,3-a]pyridine]

concentration at 1 h ([1]; brain, intraperitoneal, 10 mg/kg, LEV 10 mg/kg alone (Co. No. 2 study), read-out: Mean Brain Level (non-combination) LEV): 5770 ng/mL
concentration at 1 h ([1]; brain, intraperitoneal, LEV 10 mg/kg combined with Co. No. 2 3 mg/kg, read-out: Mean Brain Level LEV): 5880 ng/mL
concentration at 1 h ([1]; plasma, intraperitoneal, 10 mg/kg, LEV 10 mg/kg alone (Co. No. 1 study), read-out: Mean Plasma Levels (non-combination) LEV): 8250 ng/mL
concentration at 1 h ([1]; plasma, intraperitoneal, 10 mg/kg, LEV 10 mg/kg alone (Co. No. 2 study), read-out: Mean Plasma Level (non-combination) LEV): 8750 ng/mL
concentration at 1 h ([1]; plasma, intraperitoneal, LEV 10 mg/kg combined with Co. No. 1 2.5 mg/kg, 6 Hz 44 mA, read-out: Plasma (ng/ml) LEV, individual mice): 10300 ng/mL
concentration at 1 h ([1]; plasma, intraperitoneal, LEV 10 mg/kg combined with Co. No. 1 2.5 mg/kg, read-out: Mean Plasma Level LEV): 10300 ng/mL
concentration at 1 h ([1]; plasma, intraperitoneal, LEV 10 mg/kg combined with Co. No. 2 3 mg/kg, read-out: Mean Plasma Level LEV): 5510 ng/mL
Structure (SMILES): CC[C@@H](C(N)=O)N1CCCC1=O [LEV, (S)-2-(2-oxopyrrolidin-1-yl) butanamide, reference compound]
Plasma (ng/ml) LEV, individual mice ([1]; LEV 10 mg/kg combined with Co. No. 1 2.5 mg/kg, 6 Hz 44 mA): 9780 ng/ml (2×) and 13700 ng/ml and 10100 ng/ml and 9350 ng/ml and 8580 ng/ml and 10900 ng/ml
Brain (ng/ml) LEV, individual mice [1, 3]: 4760 ng/mL and 6380 ng/mL and 3960 ng/mL and 6290 ng/mL and 7990 ng/mL
Plasma (ng/ml) LEV, individual mice [1, 3]: 3540 ng/mL and 3850 ng/mL and 7150 ng/mL and 3890 ng/mL and 6450 ng/mL and 8200 ng/mL
activity in maximal electroshock (MES) seizure test (MES seizures): no activity
# protected/# tested (corneal kindled seizures; LEV 3 mg/kg): 5/13
% Protected (corneal kindled seizures; LEV 3 mg/kg): 38%
Mean Seizure Score (corneal kindled seizures; LEV 3 mg/kg): 3.3
activity in pentylenetetrazol seizure test [2]: no activity

Mean Plasma Level Co. No. 1, statistical outlier removed ([1]; Co. No. 1 2.5 mg/kg combined with LEV 10 mg/kg): (390) ng/ml
concentration at 0.5 h ([1]; plasma, subcutaneous, 2.5 mg/kg, Mean Plasma Levels (non-combination) Co. No. 1, Co. No. 1 2.5 mg/kg alone): 438 ng/mL
concentration at 0.5 h ([1]; plasma, subcutaneous, Mean Plasma Level Co. No. 1, Co. No. 1 2.5 mg/kg combined with LEV 10 mg/kg): 657 ng/mL
Structure (SMILES): Fc1ccc(N2CCN(Cc3ccn4c(CC5CC5)nnc4c3C(F)(F)F)CC2)c(F)c1 [Co. No. 1]
Seizure score (dose) Corneal kindling / Mean Seizure Score (corneal kindled seizures; 20 mg/kg s.c., Racine score 0-5): 3.7
# protected/# tested (corneal kindled seizures; Co. No. 1 20 mg/kg): 5/16
% Protected (corneal kindled seizures; Co. No. 1 20 mg/kg): 31%
# protected/# tested (corneal kindled seizures; Co. No. 1 30 mg/kg): 3/12
% Protected (corneal kindled seizures; Co. No. 1 30 mg/kg): 25%
Mean Seizure Score (corneal kindled seizures; Co. No. 1 30 mg/kg): 4.0

Co. No. 25-a mean plasma levels (ng/mL) ([1]; 10 mg/kg s.c., 0.25 h, 32 mA group): 6,113 ng/mL
Co. No. 25-a mean plasma levels (ng/mL) ([1]; 20 mg/kg s.c., 0.25 h, 32 mA group): 5,570 ng/mL
concentration at 0.25 h ([1]; plasma, subcutaneous, 1 mg/kg, 1 mg/kg s.c., 0.25 h, 32 mA group, read-out: Co. No. 25-a mean plasma levels): 466 ng/mL
concentration at 0.25 h ([1]; plasma, subcutaneous, 5 mg/kg, 5 mg/kg s.c., 0.25 h, 32 mA group, read-out: Co. No. 25-a mean plasma levels): 2560 ng/mL
concentration at 0.25 h ([1]; plasma, subcutaneous, 5 mg/kg, 5 mg/kg s.c., 44 mA group, read-out: Co. No. 25-a mean plasma levels): 1430 ng/mL
concentration at 0.25 h ([1]; plasma, subcutaneous, 10 mg/kg, 10 mg/kg s.c., 0.25 h, 32 mA group, read-out: Co. No. 25-a mean plasma levels): 11000 ng/mL
concentration at 0.25 h ([1]; plasma, subcutaneous, 10 mg/kg, 10 mg/kg s.c., 0.25 h, 32 mA group, read-out: Co. No. 25-a mean plasma levels, statistical outlier removed): 11000 ng/mL
concentration at 0.5 h ([1]; plasma, subcutaneous, 10 mg/kg, 10 mg/kg s.c., 0.5 h, 32 mA group, read-out: Co. No. 25-a mean plasma levels): 3330 ng/mL
concentration at 1 h ([1]; plasma, subcutaneous, 10 mg/kg, 10 mg/kg s.c., 1 h, 32 mA group, read-out: Co. No. 25-a mean plasma levels): 700 ng/mL
concentration at 2 h [1, 4]: 256 ng/mL
concentration at 4 h [1, 4]: 40 ng/mL
concentration at 0.25 h ([1]; plasma, subcutaneous, 10 mg/kg, 10 mg/kg s.c., 44 mA group, read-out: Co. No. 25-a mean plasma levels): 4340 ng/mL
concentration at 0.25 h ([1]; plasma, subcutaneous, 10 mg/kg, 10 mg/kg s.c., 44 mA group, read-out: Co. No. 25-a mean plasma levels, statistical outlier removed): 4340 ng/mL
concentration at 0.25 h ([1]; plasma, subcutaneous, 15 mg/kg, 15 mg/kg s.c., 0.25 h, 32 mA group, read-out: Co. No. 25-a mean plasma levels): 1200 ng/mL
concentration at 0.25 h ([1]; plasma, subcutaneous, 20 mg/kg, 20 mg/kg s.c., 0.25 h, 32 mA group, read-out: Co. No. 25-a mean plasma levels): 4100 ng/mL
concentration at 0.5 h ([1]; plasma, subcutaneous, 20 mg/kg, 20 mg/kg s.c., 0.5 h, 32 mA group, read-out: Co. No. 25-a mean plasma levels): 2800 ng/mL
concentration at 1 h ([1]; plasma, subcutaneous, 20 mg/kg, 20 mg/kg s.c., 1 h, 32 mA group, read-out: Co. No. 25-a mean plasma levels): 1760 ng/mL
concentration at 2 h [1, 5]: 618 ng/mL
concentration at 4 h [1, 5]: 28 ng/mL
concentration at 0.25 h ([1]; plasma, subcutaneous, 20 mg/kg, 20 mg/kg s.c., 44 mA group, read-out: Co. No. 25-a mean plasma levels): 3370 ng/mL
concentration at 0.25 h ([1]; plasma, subcutaneous, 30 mg/kg, 30 mg/kg s.c., 44 mA group, read-out: Co. No. 25-a mean plasma levels): 7220 ng/mL
concentration at 0.25 h ([1]; plasma, subcutaneous, 40 mg/kg, 40 mg/kg s.c., 44 mA group, read-out: Co. No. 25-a mean plasma levels): 6260 ng/mL
EC50 (human mGlu2 receptor; in presence of EC20 glutamate, read-out: GTPγS-hmGluR2 PAM pEC50 (converted)): 85.1 nM
Emax (human mGlu2 receptor): 261%
Structure (SMILES): CCCCn1ccc(N2CCC(c3ccc(F)cc3F)CC2)c(Cl)c1=O [Co. No. 25-a]
